Assays:
[1] = molecular target: Death-associated protein kinase 2 (Homo sapiens) (UniProt Q9UIK4); test: Binding affinity to wild-type human full length DAPK2 (M1 to S370 residues) expressed in bacterial expression system assessed as residual binding level at 1 uM by Kinomescan method relative to control
[2] = molecular target: Serine/threonine-protein kinase MRCK alpha (Homo sapiens) (UniProt Q5VT25); test: Binding affinity to wild-type human partial length MRCKA (L57 to V418 residues) expressed in bacterial expression system assessed as residual binding level at 1 uM by Kinomescan method relative to control
[3] = molecular target: Serine/threonine-protein kinase MRCK beta (Homo sapiens) (UniProt Q9Y5S2); test: Binding affinity to wild-type human partial length MRCKB (L56 to S417 residues) expressed in bacterial expression system assessed as residual binding level at 1 uM by Kinomescan method relative to control
[4] = molecular target: Insulin receptor (Homo sapiens) (UniProt P06213); test: Binding affinity to wild-type human partial length INSR (P997 to E1318 residues) expressed in mammalian expression system assessed as residual binding level at 1 uM by Kinomescan method relative to control
[5] = molecular target: Citron Rho-interacting kinase (Homo sapiens) (UniProt O14578); test: Binding affinity to wild-type human partial length CIT (M68 to E432 residues) expressed in bacterial expression system assessed as residual binding level at 1 uM by Kinomescan method relative to control
[6] = test system: Tyrosine-protein kinase ABL1 (Homo sapiens), P00519 [T315I]; test: Binding affinity to human phosphorylated ABL1 T315I mutant (S229 to K512 residues) expressed in mammalian expression system assessed as residual binding level at 1 uM by Kinomescan method relative to control
[7] = test system: Mast/stem cell growth factor receptor Kit (Homo sapiens), P10721 [V559D]; test: Binding affinity to human partial length KIT V559D mutant (Y545 to D952 residues) expressed in bacterial expression system assessed as residual binding level at 1 uM by Kinomescan method relative to control
[8] = molecular target: MAP/microtubule affinity-regulating kinase 3 (Homo sapiens) (UniProt P27448); test: Binding affinity to wild-type human full length MARK3 (M1 to L729 residues) expressed in bacterial expression system assessed as residual binding level at 1 uM by Kinomescan method relative to control
Chain of MAP/microtubule affinity-regulating kinase 3 (Homo sapiens) (P27448 whole entry, looked up, the tested form may be a part, canonical isoform): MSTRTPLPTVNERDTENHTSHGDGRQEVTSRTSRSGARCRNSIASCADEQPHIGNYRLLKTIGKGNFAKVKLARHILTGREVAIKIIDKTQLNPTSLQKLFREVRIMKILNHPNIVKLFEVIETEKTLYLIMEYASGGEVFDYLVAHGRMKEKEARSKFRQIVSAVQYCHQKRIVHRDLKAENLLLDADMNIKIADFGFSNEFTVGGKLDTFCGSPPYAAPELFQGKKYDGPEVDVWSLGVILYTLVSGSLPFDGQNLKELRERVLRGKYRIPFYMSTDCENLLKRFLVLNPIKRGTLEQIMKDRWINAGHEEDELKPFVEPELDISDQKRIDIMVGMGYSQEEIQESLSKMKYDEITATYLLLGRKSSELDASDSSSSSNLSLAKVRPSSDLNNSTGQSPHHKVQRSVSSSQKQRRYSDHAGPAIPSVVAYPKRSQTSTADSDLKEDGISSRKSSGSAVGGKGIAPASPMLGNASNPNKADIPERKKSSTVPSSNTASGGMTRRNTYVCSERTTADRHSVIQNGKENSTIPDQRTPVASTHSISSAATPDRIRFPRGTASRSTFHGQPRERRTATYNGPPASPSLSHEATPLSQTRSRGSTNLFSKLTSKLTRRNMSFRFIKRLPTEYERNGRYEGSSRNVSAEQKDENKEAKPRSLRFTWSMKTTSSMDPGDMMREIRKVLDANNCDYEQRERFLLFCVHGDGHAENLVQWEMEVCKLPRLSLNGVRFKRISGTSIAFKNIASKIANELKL

[9] = molecular target: Casein kinase I isoform gamma-2 (Homo sapiens) (UniProt P78368); test: Binding affinity to wild-type human full length CSNK1G2 (M1 to K415 residues) expressed in bacterial expression system assessed as residual binding level at 1 uM by Kinomescan method relative to control
[10] = molecular target: Serine/threonine-protein kinase Chk1 (Homo sapiens) (UniProt O14757); test: Binding affinity to wild-type human partial length CHEK1 (M1 to G289 residues) expressed in bacterial expression system assessed as residual binding level at 1 uM by Kinomescan method relative to control
Chain of Serine/threonine-protein kinase Chk1 (Homo sapiens) (O14757 whole entry, the tested form may be a part): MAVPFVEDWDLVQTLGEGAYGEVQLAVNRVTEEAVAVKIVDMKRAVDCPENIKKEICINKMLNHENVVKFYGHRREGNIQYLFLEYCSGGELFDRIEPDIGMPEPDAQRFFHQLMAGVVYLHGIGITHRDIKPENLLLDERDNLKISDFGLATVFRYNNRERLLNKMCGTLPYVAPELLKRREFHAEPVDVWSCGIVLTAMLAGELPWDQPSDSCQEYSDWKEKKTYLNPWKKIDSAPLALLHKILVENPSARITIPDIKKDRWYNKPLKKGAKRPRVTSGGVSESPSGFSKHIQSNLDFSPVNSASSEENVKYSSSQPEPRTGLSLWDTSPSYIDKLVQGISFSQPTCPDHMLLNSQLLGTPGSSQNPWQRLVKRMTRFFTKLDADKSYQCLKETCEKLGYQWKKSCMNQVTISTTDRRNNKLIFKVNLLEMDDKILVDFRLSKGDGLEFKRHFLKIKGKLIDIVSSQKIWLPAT

[11] = molecular target: Focal adhesion kinase 1 (Homo sapiens) (UniProt Q05397); test: Binding affinity to wild-type human partial length FAK (D402 to R696 residues) expressed in bacterial expression system assessed as residual binding level at 1 uM by Kinomescan method relative to control
Chain of Focal adhesion kinase 1 (Homo sapiens) (Q05397 2-1052 limits assumed): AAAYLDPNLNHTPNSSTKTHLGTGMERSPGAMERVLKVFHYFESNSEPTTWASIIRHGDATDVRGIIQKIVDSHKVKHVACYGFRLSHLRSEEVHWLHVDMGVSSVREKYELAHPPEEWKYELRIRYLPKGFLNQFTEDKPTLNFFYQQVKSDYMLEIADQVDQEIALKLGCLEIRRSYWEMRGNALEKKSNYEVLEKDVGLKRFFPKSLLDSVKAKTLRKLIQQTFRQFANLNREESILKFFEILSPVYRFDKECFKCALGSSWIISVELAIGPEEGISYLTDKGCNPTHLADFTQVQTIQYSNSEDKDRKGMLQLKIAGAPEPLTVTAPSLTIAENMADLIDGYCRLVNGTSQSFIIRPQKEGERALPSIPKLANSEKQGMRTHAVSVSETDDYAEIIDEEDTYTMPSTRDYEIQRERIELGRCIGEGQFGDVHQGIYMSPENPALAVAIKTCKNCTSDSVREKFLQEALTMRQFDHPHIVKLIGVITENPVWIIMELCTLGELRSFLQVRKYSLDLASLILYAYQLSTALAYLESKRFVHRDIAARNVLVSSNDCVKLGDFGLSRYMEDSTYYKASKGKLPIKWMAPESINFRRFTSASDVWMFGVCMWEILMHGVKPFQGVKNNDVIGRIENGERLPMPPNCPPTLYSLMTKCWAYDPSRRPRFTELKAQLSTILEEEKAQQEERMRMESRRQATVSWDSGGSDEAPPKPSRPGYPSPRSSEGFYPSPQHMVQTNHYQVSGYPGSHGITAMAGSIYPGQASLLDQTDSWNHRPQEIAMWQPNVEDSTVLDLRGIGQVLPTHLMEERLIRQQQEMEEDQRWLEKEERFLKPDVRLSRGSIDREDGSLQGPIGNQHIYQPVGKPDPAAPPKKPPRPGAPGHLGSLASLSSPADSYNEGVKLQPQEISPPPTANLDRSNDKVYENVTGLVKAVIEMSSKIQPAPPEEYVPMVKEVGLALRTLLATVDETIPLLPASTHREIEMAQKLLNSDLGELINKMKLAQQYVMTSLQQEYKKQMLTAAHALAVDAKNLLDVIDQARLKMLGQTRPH

[12] = molecular target: Glycogen synthase kinase-3 beta (Homo sapiens) (UniProt P49841); test: Binding affinity to wild-type human full length GSK3B (M1 to T433 residues) expressed in mammalian expression system assessed as residual binding level at 1 uM by Kinomescan method relative to control
Chain of Glycogen synthase kinase-3 beta (Homo sapiens) (P49841 whole entry, looked up, the tested form may be a part): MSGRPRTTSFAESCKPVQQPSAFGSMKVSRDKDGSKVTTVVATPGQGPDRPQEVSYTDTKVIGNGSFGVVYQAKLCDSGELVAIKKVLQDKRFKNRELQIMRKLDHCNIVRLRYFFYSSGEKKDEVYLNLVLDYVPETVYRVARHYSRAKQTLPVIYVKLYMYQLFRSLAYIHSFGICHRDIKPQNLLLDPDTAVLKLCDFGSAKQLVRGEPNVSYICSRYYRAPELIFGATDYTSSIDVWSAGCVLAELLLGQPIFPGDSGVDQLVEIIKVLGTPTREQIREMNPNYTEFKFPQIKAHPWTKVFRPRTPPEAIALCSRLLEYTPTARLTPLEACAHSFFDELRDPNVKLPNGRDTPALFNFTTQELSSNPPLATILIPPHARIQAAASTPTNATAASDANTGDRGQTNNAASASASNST

[13] = molecular target: Misshapen-like kinase 1 (Homo sapiens) (UniProt Q8N4C8); test: Binding affinity to wild-type human partial length MINK (M1 to K312 residues) expressed in mammalian expression system assessed as residual binding level at 1 uM by Kinomescan method relative to control
[14] = molecular target: Calcium/calmodulin-dependent protein kinase type 1 (Homo sapiens) (UniProt Q14012); test: Binding affinity to wild-type human full length CAMK1 (M1 to L370 residues) expressed in bacterial expression system assessed as residual binding level at 1 uM by Kinomescan method relative to control
Chain of Calcium/calmodulin-dependent protein kinase type 1 (Homo sapiens) (Q14012 whole entry, looked up, the tested form may be a part): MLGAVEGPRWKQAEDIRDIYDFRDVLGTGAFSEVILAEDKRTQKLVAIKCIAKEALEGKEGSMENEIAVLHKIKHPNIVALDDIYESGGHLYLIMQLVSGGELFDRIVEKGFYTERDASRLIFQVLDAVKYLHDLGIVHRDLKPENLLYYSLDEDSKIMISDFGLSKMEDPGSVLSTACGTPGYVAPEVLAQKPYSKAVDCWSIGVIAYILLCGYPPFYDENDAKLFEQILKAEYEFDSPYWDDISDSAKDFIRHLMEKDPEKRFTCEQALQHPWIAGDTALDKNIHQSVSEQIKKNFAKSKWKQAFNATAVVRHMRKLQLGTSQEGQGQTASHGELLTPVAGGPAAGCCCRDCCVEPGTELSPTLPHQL

[15] = molecular target: Serine/threonine-protein kinase DCLK1 (Homo sapiens) (UniProt O15075); test: Binding affinity to wild-type human partial length DCAMKL1 (L270 to A662 residues) expressed in mammalian expression system assessed as residual binding level at 1 uM by Kinomescan method relative to control
[16] = molecular target: Cyclin-dependent kinase 4/cyclin D1 (Homo sapiens) (UniProt P11802+P24385); test: Binding affinity to wild-type human full length CDK4/cyclinD1 (M1 to E303 residues) expressed in mammalian expression system assessed as residual binding level at 1 uM by Kinomescan method relative to control
[17] = molecular target: Dual specificity mitogen-activated protein kinase kinase 5 (Homo sapiens) (UniProt Q13163); test: Binding affinity to wild-type human partial length MEK5 (L98 to P448 residues) expressed in mammalian expression system assessed as residual binding level at 1 uM by Kinomescan method relative to control
[18] = molecular target: Serine/threonine-protein kinase PAK 5 (Homo sapiens) (UniProt Q9P286); test: Binding affinity to wild-type human partial length PAK7 (Y400 to H719 residues) expressed in bacterial expression system assessed as residual binding level at 1 uM by Kinomescan method relative to control
[19] = molecular target: Non-receptor tyrosine-protein kinase TNK1 (Homo sapiens) (UniProt Q13470); test: Binding affinity to wild-type human full length TNK1 (M1 to P661 residues) expressed in bacterial expression system assessed as residual binding level at 1 uM by Kinomescan method relative to control
[20] = molecular target: Serine/threonine-protein kinase 32C (Homo sapiens) (UniProt Q86UX6); test: Binding affinity to wild-type human partial length YANK3 (M68 to G486 residues) expressed in bacterial expression system assessed as residual binding level at 1 uM by Kinomescan method relative to control
Chain of Serine/threonine-protein kinase 32C (Homo sapiens) (Q86UX6 whole entry, the tested form may be a part): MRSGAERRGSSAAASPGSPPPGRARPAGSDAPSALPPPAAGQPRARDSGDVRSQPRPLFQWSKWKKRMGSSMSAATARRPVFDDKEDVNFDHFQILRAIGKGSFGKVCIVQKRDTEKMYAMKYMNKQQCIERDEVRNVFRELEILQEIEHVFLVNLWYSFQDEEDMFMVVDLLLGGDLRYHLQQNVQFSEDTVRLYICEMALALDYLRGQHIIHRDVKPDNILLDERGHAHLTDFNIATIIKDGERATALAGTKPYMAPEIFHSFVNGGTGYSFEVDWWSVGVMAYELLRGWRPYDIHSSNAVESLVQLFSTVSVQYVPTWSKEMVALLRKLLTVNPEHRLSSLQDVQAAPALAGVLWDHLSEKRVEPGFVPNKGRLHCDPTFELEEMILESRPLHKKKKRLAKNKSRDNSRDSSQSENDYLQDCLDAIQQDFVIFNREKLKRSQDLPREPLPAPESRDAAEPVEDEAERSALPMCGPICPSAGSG

[21] = molecular target: Interleukin-1 receptor-associated kinase 3 (Homo sapiens) (UniProt Q9Y616); test: Binding affinity to wild-type human partial length IRAK3 (V147 to E596 residues) expressed in bacterial expression system assessed as residual binding level at 1 uM by Kinomescan method relative to control
Chain of Interleukin-1 receptor-associated kinase 3 (Homo sapiens) (Q9Y616 whole entry, the tested form may be a part): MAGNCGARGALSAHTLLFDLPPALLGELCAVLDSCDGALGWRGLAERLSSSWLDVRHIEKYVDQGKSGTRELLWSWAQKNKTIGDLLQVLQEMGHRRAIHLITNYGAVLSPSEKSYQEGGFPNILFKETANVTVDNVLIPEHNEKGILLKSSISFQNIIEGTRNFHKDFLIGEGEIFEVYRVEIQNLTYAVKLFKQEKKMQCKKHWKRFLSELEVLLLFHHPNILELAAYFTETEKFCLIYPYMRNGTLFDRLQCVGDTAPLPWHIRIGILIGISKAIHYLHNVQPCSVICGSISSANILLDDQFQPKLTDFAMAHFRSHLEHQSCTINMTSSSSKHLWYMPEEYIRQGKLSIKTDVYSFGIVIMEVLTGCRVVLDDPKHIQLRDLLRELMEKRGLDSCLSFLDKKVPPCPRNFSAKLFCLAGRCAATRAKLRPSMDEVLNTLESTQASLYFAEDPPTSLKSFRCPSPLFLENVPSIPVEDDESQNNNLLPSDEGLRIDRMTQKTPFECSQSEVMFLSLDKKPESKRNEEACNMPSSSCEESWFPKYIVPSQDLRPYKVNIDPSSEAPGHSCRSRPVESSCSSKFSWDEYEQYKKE

[22] = molecular target: Myosin-IIIb (Homo sapiens) (UniProt Q8WXR4); test: Binding affinity to wild-type human partial length MYO3B (M1 to D357 residues) expressed in bacterial expression system assessed as residual binding level at 1 uM by Kinomescan method relative to control
[23] = molecular target: RAC-alpha serine/threonine-protein kinase (Homo sapiens) (UniProt P31749); test: Binding affinity to wild-type human partial length AKT1 expressed in bacterial expression system assessed as residual binding level at 1 uM by Kinomescan method relative to control
[24] = test system: Epidermal growth factor receptor (Homo sapiens), P00533 [L858R,T790M]; test: Binding affinity to human partial length EGFR L858R/T790M double mutant (R669 to V1011 residues) expressed in mammalian expression system assessed as residual binding level at 1 uM by Kinomescan method relative to control
[25] = molecular target: Serine/threonine-protein kinase MARK1 (Homo sapiens) (UniProt Q9P0L2); test: Binding affinity to wild-type human partial length MARK1 (Q30 to T341 residues) expressed in bacterial expression system assessed as residual binding level at 1 uM by Kinomescan method relative to control
Chain of Serine/threonine-protein kinase MARK1 (Homo sapiens) (Q9P0L2 whole entry, looked up, the tested form may be a part): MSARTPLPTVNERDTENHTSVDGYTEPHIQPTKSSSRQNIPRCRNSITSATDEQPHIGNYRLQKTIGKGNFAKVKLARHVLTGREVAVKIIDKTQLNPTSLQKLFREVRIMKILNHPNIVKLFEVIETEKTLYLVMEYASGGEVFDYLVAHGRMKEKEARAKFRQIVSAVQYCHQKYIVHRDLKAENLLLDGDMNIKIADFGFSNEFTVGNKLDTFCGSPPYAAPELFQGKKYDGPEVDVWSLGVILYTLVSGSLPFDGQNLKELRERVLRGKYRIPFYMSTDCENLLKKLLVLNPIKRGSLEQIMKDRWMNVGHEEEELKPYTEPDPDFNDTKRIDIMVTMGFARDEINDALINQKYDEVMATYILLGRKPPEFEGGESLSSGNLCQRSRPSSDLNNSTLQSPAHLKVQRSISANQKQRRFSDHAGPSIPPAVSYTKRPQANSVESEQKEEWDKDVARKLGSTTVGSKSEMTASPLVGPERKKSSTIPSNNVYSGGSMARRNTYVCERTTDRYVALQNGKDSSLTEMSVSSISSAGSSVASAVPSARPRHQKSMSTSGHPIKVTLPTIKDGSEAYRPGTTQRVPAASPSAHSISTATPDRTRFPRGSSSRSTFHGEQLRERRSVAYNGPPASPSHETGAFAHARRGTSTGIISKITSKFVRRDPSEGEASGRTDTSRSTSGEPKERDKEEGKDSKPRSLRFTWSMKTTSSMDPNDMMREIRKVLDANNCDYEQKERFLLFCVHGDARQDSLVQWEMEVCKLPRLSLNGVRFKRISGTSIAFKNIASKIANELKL

## CC(C)Nc1sc(C(=O)c2ccc(Cl)s2)c(N)c1C#N
[1]
  Activity: 66%
[2]
  Activity: 87%
[3]
  Activity: 90%
[4]
  Activity: 80%
[5]
  Activity: 72%
[6]
  Activity: 100%
[7]
  Activity: 59%
[8]
  Activity: 78%
[9]
  Activity: 74%
[10]
  Activity: 87%
[11]
  Activity: 74%
[12]
  Activity: 97%
[13]
  Activity: 55%
[14]
  Activity: 91%
[15]
  Activity: 100%
[16]
  Activity: 100%
[17]
  Activity: 100%
[18]
  Activity: 81%
[19]
  Activity: 70%
[20]
  Activity: 82%
[21]
  Activity: 86%
[22]
  Activity: 98%
[23]
  Activity: 84%
[24]
  Activity: 83%
[25]
  Activity: 67%

Reference: ChEMBL document CHEMBL4330132, “5-Keto-3-cyano-2,4-diaminothiophenes as selective maternal embryonic leucine zipper kinase inhibitors” (Bioorg Med Chem Lett, 2019)
